Measured values: US9499502B2, “5-substituted iminothiazines and their mono- and dioxides as BACE inhibitors, compositions, and their use” (Merck Sharp & Dohme Corp., priority 2011, dated 2016)
Where two headings read alike, the source gives them in different places.

Experiments:
[1] = biological target: soluble human BACE1 catalytic domain (Homo sapiens (Human), UniProt P56817); assay: BACE1 HTRF FRET Assay; conditions: for Ki: read-out: BACE1 Ki
[2] = biological target: purified human autoBACE-2 (Homo sapiens (Human), UniProt Q9Y5Z0); assay: BACE-2 Assay (BACE-HTRF assay); type: biochemical
Sequence of purified human autoBACE-2 (Q9Y5Z0 63-473): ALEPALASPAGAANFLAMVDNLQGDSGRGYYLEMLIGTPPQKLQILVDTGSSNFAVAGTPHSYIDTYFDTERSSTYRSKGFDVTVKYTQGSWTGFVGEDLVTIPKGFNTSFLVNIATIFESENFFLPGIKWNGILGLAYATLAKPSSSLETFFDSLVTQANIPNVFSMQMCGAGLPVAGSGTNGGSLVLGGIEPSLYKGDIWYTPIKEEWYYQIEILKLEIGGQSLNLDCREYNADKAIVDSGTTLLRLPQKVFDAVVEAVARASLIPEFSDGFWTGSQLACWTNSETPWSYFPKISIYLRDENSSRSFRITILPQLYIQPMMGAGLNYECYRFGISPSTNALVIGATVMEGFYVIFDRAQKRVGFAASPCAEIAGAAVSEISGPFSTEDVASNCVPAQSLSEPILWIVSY
Description: Inhibitor IC50s at purified human autoBACE-2 are determined in a time-resolved endpoint proteolysis assay that measures hydrolysis of the QSY7-[…]-Eu-amide FRET peptide substrate (BACE-HTRF assay). […] DMSO is present at 5% final concentration in the assay. Following laser excitation of sample wells at 320 nm, the fluorescence signal at 620 nm is collected for 400 ms following a 50 μs delay on a RUBYstar HTRF plate reader (BMG Labtechnologies). Raw RFU data is normalized to maximum (1.0 nM BACE/DMSO) and minimum (no enzyme/DMSO) RFU values. […] The Ki values are calculated from the IC50 using the Cheng-Prusoff equation.

[3] = Ki calculated from IC50 using the Cheng-Prusoff equation
[4] = Ki calculated from IC50 using the Cheng-Prusoff equation, read-out: BACE2 Ki

Sequence of soluble human BACE1 catalytic domain (P56817 75-416): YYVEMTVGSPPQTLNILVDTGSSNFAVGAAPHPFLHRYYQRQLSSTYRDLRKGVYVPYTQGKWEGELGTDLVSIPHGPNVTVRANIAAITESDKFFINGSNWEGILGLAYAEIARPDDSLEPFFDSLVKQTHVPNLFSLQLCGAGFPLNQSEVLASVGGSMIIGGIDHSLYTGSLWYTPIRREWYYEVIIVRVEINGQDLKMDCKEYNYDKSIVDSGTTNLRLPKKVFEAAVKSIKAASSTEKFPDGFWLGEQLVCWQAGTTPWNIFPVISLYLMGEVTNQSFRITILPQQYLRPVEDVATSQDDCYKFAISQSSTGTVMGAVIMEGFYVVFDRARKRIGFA

| Ki [1, 3] | Ki [2, 4] | inhibition at 1 µM ([1]; read-out: BACE1 % Inh. at 1 μM, at 1 μM) | Ki [1] | Structure (SMILES) | Ki [2] |
| --- | --- | --- | --- | --- | --- |
| 0.0967 µM | 0.011 to 0.1 µM |  |  | COc1cnc(C(=O)Nc2ccc(F)c([C@]3(C)CS(=O)(=O)[C@](C)(C4CC4)C(=N)N3)c2)cn1 [Example 9cq-b] |  |
| 0.181 µM | 0.101 to 0.7 µM |  |  | C[C@@]1(c2ccccn2)C(=N)N[C@](C)(c2cc(NC(=O)c3ccc(C(F)(F)F)cn3)ccc2F)CS1(=O)=O [Example 9cz-b] |  |
| 0.175 µM | 0.101 to 0.7 µM |  |  | C[C@@]1(c2cccc(F)c2)C(=N)N[C@](C)(c2cc(NC(=O)c3ccc(C(F)(F)F)cn3)ccc2F)CS1(=O)=O [Example 9de-b] |  |
| 0.186 µM | 0.101 to 0.7 µM |  |  | COc1cnc(C(=O)Nc2ccc(F)c([C@]3(C)CS(=O)(=O)[C@](C)(c4ccc(F)cc4)C(=N)N3)c2)cn1 [Example 9dg-b] |  |
| 0.0426 µM | 0.011 to 0.1 µM |  |  | COc1cnc(C(=O)Nc2ccc(F)c([C@]3(C)CS(=O)(=O)[C@](C)(CC4CC4)C(=N)N3)c2)cn1 [Example 9dk-b] |  |
| 0.0332 µM | 0.011 to 0.1 µM |  |  | C[C@@]1(c2cc(NC(=O)c3ccc(C(F)(F)F)cn3)ccc2F)CS(=O)(=O)[C@](C)(CC2CC2)C(=N)N1 [Example 9dl-b] |  |
| 0.0336 µM | 0.011 to 0.1 µM |  |  | C=CC[C@]1(C)C(=N)N[C@](C)(c2cc(NC(=O)c3cnc(OC)cn3)ccc2F)CS1(=O)=O [Example 9dm-b] |  |
| 0.257 µM | 0.101 to 0.7 µM |  |  | COc1ccc(C(=O)Nc2ccc(F)c([C@]3(C)CS(=O)(=O)[C@](C)(C(C)C)C(=N)N3)c2)nc1 [Example 9eb-b] |  |
| 0.522 µM | 0.101 to 0.7 µM |  |  | COc1cnc(C(=O)Nc2ccc(F)c([C@]3(C)CS(=O)(=O)[C@](C)(C(C)C)C(=N)N3)c2)cn1 [Example 9ec-b] |  |
| 0.0096 µM | 0.013 µM |  |  | CC1(C)C(=N)N[C@](C)(c2cc(NC(=O)c3ccc(C(F)(F)F)cn3)cc(Cl)c2F)CS1(=O)=O [Example 9v] |  |
| 0.0269 µM | 0.008 µM |  |  | CC1(C)C(=N)N[C@](C)(c2sc(C(=O)Nc3cccc(Cl)n3)cc2Cl)CS1(=O)=O [Example 20] |  |
| 0.736 µM | 0.051 µM |  |  | CC1(C)C(=N)N[C@](C)(c2sc(C(=O)NCc3cccc(-c4ccon4)c3)cc2Cl)CS1(=O)=O [Example 22g] |  |
| 0.063 µM | < 0.2 µM |  |  | CC1(C)C(=N)N[C@](C)(c2sc(-c3cncc(C#N)c3)cc2Cl)CS1(=O)=O [Example 23] |  |
| 0.172 µM | < 0.2 µM |  |  | CC1(C)C(=N)N[C@](C)(c2sc(-c3ccc(F)c(C(F)(F)F)c3)cc2Cl)CS1(=O)=O [Example 27a] |  |
|  | ≤ 0.02 µM |  | 0.076 µM | CC1(C)C(=N)N[C@](C)(c2sc(-c3cccc(C#N)c3)cc2F)CS1(=O)=O [Example 27aq] |  |
|  | ≤ 0.02 µM |  | 0.0094 µM | CC1(C)C(=N)N[C@](C)(c2sc(-c3cc(F)cc(-c4nnco4)c3)cc2F)CS1(=O)=O [Example 27as] |  |
| 0.102 µM | ≤ 0.02 µM |  |  | CC1(C)C(=N)N[C@](C)(c2sc(-c3nnc(-c4ccc(F)cc4)o3)cc2Cl)CS1(=O)=O [Example 27bb] |  |
|  | ≤ 0.02 µM |  | 0.0309 µM | CC1(C)C(=N)N[C@](C)(c2sc(-c3nnc(-c4ccc(Cl)cc4)o3)cc2F)CS1(=O)=O [Example 27bf] |  |
|  | 0.007 µM |  | 0.0357 µM | C[C@]1(CC(F)(F)F)C(=N)N[C@](C)(c2sc(-c3cccc(C#N)c3)cc2F)CS1(=O)=O [Example 27bj-a] |  |

Second part, the compound before the results:

| Structure (SMILES) | Ki [1, 3] | Ki [2, 4] | inhibition at 1 µM ([1]; read-out: BACE1 % Inh. at 1 μM, at 1 μM) | Ki [1] | Ki [2] |
| --- | --- | --- | --- | --- | --- |
| COc1cccc2cc(C(=O)Nc3ccc(F)c([C@]4(C)CS(=O)(=O)[C@@](C)(CC5CCOCC5)C(=N)N4)c3)[nH]c12 [Example 9cu-a] | 0.0467 µM | 0.011 to 0.1 µM |  |  |  |
| C[C@@]1(c2ccccn2)C(=N)N[C@](C)(c2cc(NC(=O)c3ccc(F)cn3)ccc2F)CS1(=O)=O [Example 9cv-b] | 0.187 µM | 0.011 to 0.1 µM |  |  |  |
| C[C@@]1(c2ccccn2)C(=N)N[C@](C)(c2cc(NC(=O)c3ccc(Cl)cn3)ccc2F)CS1(=O)=O [Example 9cw-b] | 0.0727 µM | 0.011 to 0.1 µM |  |  |  |
| COc1ccc(C(=O)Nc2ccc(F)c([C@]3(C)CS(=O)(=O)[C@](C)(c4ccccn4)C(=N)N3)c2)nc1 [Example 9cx-b] | 0.282 µM | 0.101 to 0.7 µM |  |  |  |
| COc1cnc(C(=O)Nc2ccc(F)c([C@]3(C)CS(=O)(=O)[C@@](C)(c4ccccn4)C(=N)N3)c2)cn1 [Example 9cy-a] | 0.0069 µM | 0.011 to 0.1 µM |  |  |  |
| COc1cnc(C(=O)Nc2ccc(F)c([C@]3(C)CS(=O)(=O)[C@](C)(c4ccccn4)C(=N)N3)c2)cn1 [Example 9cy-b] | 0.209 µM | 0.101 to 0.7 µM |  |  |  |
| C[C@@]1(c2cc(NC(=O)c3ccc(C(F)(F)F)cn3)ccc2F)CS(=O)(=O)[C@@](C)(c2ccccn2)C(=N)N1 [Example 9cz-a] | 0.006 µM | 0.011 to 0.1 µM |  |  |  |
| C[C@@]1(c2cccc(F)c2)C(=N)N[C@](C)(c2cc(NC(=O)c3ccc(F)cn3)ccc2F)CS1(=O)=O [Example 9da-b] | 0.198 µM | 0.011 to 0.1 µM |  |  |  |
| COc1ccc(C(=O)Nc2ccc(F)c([C@]3(C)CS(=O)(=O)[C@@](C)(c4cccc(F)c4)C(=N)N3)c2)nc1 [Example 9dc-a] | 0.003 µM | 0.011 to 0.1 µM |  |  |  |
| COc1cnc(C(=O)Nc2ccc(F)c([C@]3(C)CS(=O)(=O)[C@](C)(c4cccc(F)c4)C(=N)N3)c2)cn1 [Example 9dd-b] | 0.229 µM | 0.101 to 0.7 µM |  |  |  |
| C[C@@]1(c2ccc(F)cc2)C(=N)N[C@](C)(c2cc(NC(=O)c3ccc(F)cn3)ccc2F)CS1(=O)=O [Example 9df-b] | 0.165 µM |  |  |  | 0.011 to 0.1 µM |
| C[C@@]1(c2cc(NC(=O)c3ccc(F)cn3)ccc2F)CS(=O)(=O)[C@](C)(CC(F)(F)F)C(=N)N1 [Example 9dp-b] | 0.0745 µM | 0.011 to 0.1 µM |  |  |  |
| COc1ccc(C(=O)Nc2ccc(F)c([C@]3(C)CS(=O)(=O)[C@](C)(CC(F)(F)F)C(=N)N3)c2)nc1 [Example 9dq-b] | 0.0543 µM | 0.011 to 0.1 µM |  |  |  |
| COc1cnc(C(=O)Nc2ccc(F)c([C@]3(C)CS(=O)(=O)[C@](C)(CC(F)(F)F)C(=N)N3)c2)cn1 [Example 9dr-b] | 0.137 µM | 0.101 to 0.7 µM |  |  |  |
| C[C@@]1(C2CCC2)C(=N)N[C@](C)(c2cc(NC(=O)c3ccc(F)cn3)ccc2F)CS1(=O)=O [Example 9dv-b] | 0.304 µM | 0.011 to 0.1 µM |  |  |  |
| C[C@@]1(C2CCC2)C(=N)N[C@](C)(c2cc(NC(=O)c3ccc(Cl)cn3)ccc2F)CS1(=O)=O [Example 9dw-b] | 0.0663 µM | 0.011 to 0.1 µM |  |  |  |
| COc1ccc(C(=O)Nc2ccc(F)c([C@]3(C)CS(=O)(=O)[C@](C)(C4CCC4)C(=N)N3)c2)nc1 [Example 9dx-b] | 0.307 µM | 0.101 to 0.7 µM |  |  |  |
| COc1cnc(C(=O)Nc2ccc(F)c([C@]3(C)CS(=O)(=O)[C@](C)(C4CCC4)C(=N)N3)c2)cn1 [Example 9dy-b] | 0.499 µM | 0.101 to 0.7 µM |  |  |  |

| Structure (SMILES) | Ki [1, 3] | Ki [2, 4] | inhibition at 1 µM ([1]; read-out: BACE1 % Inh. at 1 μM, at 1 μM) | Ki [1] | Ki [2] |
| --- | --- | --- | --- | --- | --- |
| C[C@@]1(C2CCC2)C(=N)N[C@](C)(c2cc(NC(=O)c3ccc(C(F)(F)F)cn3)ccc2F)CS1(=O)=O [Example 9dz-b] | 0.123 µM | 0.101 to 0.7 µM |  |  |  |
| CC(C)[C@]1(C)C(=N)N[C@](C)(c2cc(NC(=O)c3ccc(F)cn3)ccc2F)CS1(=O)=O [Example 9ea-b] | 0.224 µM | 0.011 to 0.1 µM |  |  |  |
| COc1cnc(C(=O)Nc2ccc(F)c([C@]3(C)CS(=O)(=O)[C@@](C)(C(C)C)C(=N)N3)c2)cn1 [Example 9ec-a] | 0.0149 µM | 0.011 to 0.1 µM |  |  |  |
| CC1(C)C(=N)N[C@](C)(c2cc(NC(=N)c3ncc(F)cc3F)ccc2F)CS1(=O)=O [Example 9ef] | 0.989 µM | 0.218 µM |  |  |  |
| Cc1nnc(C(=O)Nc2ccc(F)c([C@]3(C)CS(=O)(=O)C(C)(C)C(=N)N3)c2)o1 [Example 9i] | 0.185 µM | 0.049 µM |  |  |  |
| COc1cnc(C(=O)Nc2cc(F)c(F)c([C@]3(C)CS(=O)(=O)C(C)(C)C(=N)N3)c2)cn1 [Example 9n] | 0.0066 µM | 0.012 µM |  |  |  |
| COc1ccc(C(=O)Nc2ccc(F)c([C@]3(C)CS(=O)(=O)C(C)(C)C(=N)N3)c2F)nc1 [Example 9y] | 0.044 µM | 0.011 µM |  |  |  |
| COc1cnc(C(=O)Nc2ccc(F)c([C@]3(C)CS(=O)(=O)C(C)(C)C(=N)N3)c2F)cn1 [Example 9z] | 0.0529 µM | 0.059 µM |  |  |  |
| CC1(C)C(=N)N[C@](C)(c2cc(-c3cc(F)cc(-c4nnco4)c3)ccc2F)CS1(=O)=O [Example 16a] |  | 0.445 µM | 43% |  |  |
| CC1=NOC(CNC(=O)c2cc(Cl)c([C@]3(C)CS(=O)(=O)C(C)(C)C(=N)N3)s2)C1 (some centres unmarked) [Example 22f] | 0.616 µM | 1.8 µM |  |  |  |
| CC1(C)C(=N)N[C@](C)(c2sc(C(=O)NCc3cc(Cl)ccn3)cc2Cl)CS1(=O)=O [Example 22u] | 2.72 µM | 0.077 µM |  |  |  |
| CC1(C)C(=N)N[C@](C)(c2sc(-c3cncnc3)cc2Cl)CS1(=O)=O [Example 24] | 0.387 µM | 0.314 µM |  |  |  |
| COc1cccc2cc(-c3cc(F)c([C@]4(C)CS(=O)(=O)C(C)(C)C(=N)N4)s3)[nH]c12 [Example 27an] |  | ≤ 0.02 µM |  | 0.021 µM |  |
| CC1(C)C(=N)N[C@](C)(c2sc(-c3cccc(-c4ncon4)c3)cc2F)CS1(=O)=O [Example 27ao] |  | ≤ 0.02 µM |  | 0.1 µM |  |
| CC1(C)C(=N)N[C@](C)(c2sc(-c3cc(F)cc(-c4cnco4)c3)cc2F)CS1(=O)=O [Example 27at] |  | ≤ 0.02 µM |  | 0.026 µM |  |
| CC1(C)C(=N)N[C@](C)(c2sc(-c3nnc(-c4ccc(Cl)cc4)o3)cc2Cl)CS1(=O)=O [Example 27bc] | 0.0359 µM | ≤ 0.02 µM |  |  |  |
| CC1(C)C(=N)N[C@](C)(c2sc(-c3nnc(-c4ccc(F)cc4)o3)cc2F)CS1(=O)=O [Example 27bg] |  | ≤ 0.02 µM |  | 0.0793 µM |  |
| COc1ccc(-c2nnc(-c3cc(F)c([C@]4(C)CS(=O)(=O)C(C)(C)C(=N)N4)s3)o2)cc1 [Example 27bh] |  | ≤ 0.02 µM |  | 0.074 µM |  |
